Experimental data from patent US12180252B2, “Peptide derived from PEP27 peptide and uses thereof” (priority 2021, dated 2024).
Like-named read-outs stand apart in the source and are kept apart here. Where a SMILES comes first, the peptide text is derived from it.

What was measured:
[1] = tested on: red blood cells of a rat (Balb/c); settings: 37° C., 1 hour
Description: In order to compare the cytotoxicity of the peptides prepared by the method of above 1, erythrocyte hemolytic activity of each of the synthesized peptides was measured.
Specifically, red blood cells of a rat (Balb/c, 6 weeks old, female) were diluted with PBS (pH 7.0) to a concentration of 8%, and PEP27, PEP27-1, PEP27-2 and PEP27-5 peptides were used for treatment of the cells at concentrations of 3.13, 6.25, 12.5, 25.01 50.0 and 100.0 μM/well, respectively, followed by reaction at 37° C. for 1 hour. Then, an amount of hemoglobin contained in the supernatant obtained by centrifugation at 1,000×g was determined by measuring the absorbance at a wavelength of 414 nm. As a control which is a standard for the degree of cell destruction, the absorbance of the obtained supernatant was measured after treatment using 1% Triton X-100 (Sigma, USA) and reaction at 37° C. for 1 hour. With reference to 100% erythrocytes hemolysis activity, hemolysis of each peptide was calculated from the measured absorbance using Equation 1 below. Erythrocyte destruction ability (%)=(Absorbance A−Absorbance B)/(Absorbance C−Absorbance B)×100 [Equation 1]
(wherein, absorbance A represents the absorbance of a reaction solution treated with each peptide measured at a wavelength of 414 nm; absorbance B represents the absorbance of a reaction solution treated with PBS measured at a wavelength of 414 nm; and absorbance C represents the absorbance of a reaction solution treated with 1% Triton X-100 measured at a wavelength of 414 nm).

E. coli = assay: Flow cytometry, propidium iodide staining; format: cell-based, Escherichia coli
Description: In order to confirm whether the peptide prepared by the method of above 1 acts on the bacterial membrane, PEP27-2 peptide having better antimicrobial activity than the parental peptide was analyzed through flow cytometry.
Thereafter, the supernatant was removed using a centrifuge (10,000 rpm) and stained with propidium iodide (PI) at a concentration of 10 μg/ml at 4° C. for 30 minutes. Then, the unbound propidium iodide (PI) was removed using the centrifuge, and 1 ml of physiological saline (PBS) was added to remove agglomeration of the cells. Thereafter, effects of the peptide on the bacterial membrane were determined using a Bechman flow cytometer.

plasmid DNA (pRSETB) = assay: Peptide-DNA binding by agarose gel electrophoresis; settings: peptide/DNA ratios 0.25:1 to 4:1, 300 ng plasmid DNA
Description: Specifically, 300 ng of plasmid DNA (pRSETB) was reacted with the peptide by a relative ratio (reactions were performed at peptide/DNA ratios of DNA alone, 0.25:1, 0.5:1, 1:1, 1.5:1, 2:1, 3:1, 4:1, respectively) at 37° C. for 10 minutes, followed by conducting electrophoresis on a 1% agarose gel, staining the same with ethidium bromide (EtBr) and monitoring through UV.

MTT cytotoxicity = format: cell-based, human; settings: human; 100 μM, 24 h, MTT, HaCaT and MCF-7 cells; read-out: cell viability
Description: Specifically, Thiazolyl blue tetrazolium bromide (MTT, Merck KGaA) was used to determine the cytotoxicity of PEP27 and its analogs against HaCaT (human keratinocyte […], n=4 per condition) and MCF-7 (human breast adenocarcinoma, n=3 per condition) cells. The cells were cultured in Dulbecco's modified Eagle's medium (DMEM) supplemented with 10 heat-inactivated fetal bovine serum (FBS, Gibco, Grand Island, NY, USA) and 1% penicillin-streptomycin (Gibco) at a density of 2×10^4 cells/well (96-well plate). Peptides were then added at various concentrations and incubated for 24 h at 37° C., after which MTT (final concentration, 0.5 mg/mL) was added to each well and incubated for 4 h. The formazan product was solubilized in DMSO, and the absorbance at 570 nm was measured to […] cytotoxicity. Cells treated with 0.1% Triton X-100 were used as the 100% cytotoxic control sample.

[2] = Calcein release from LUVs; settings: peptide-to-lipid (P/L) ratio 0.2; PE/PG and PC/CH/SM liposomes; 100% = 0.1% Triton X-100
Description: To examine the mechanism of action of PEP27 and PEP27-2, we evaluated the changes in bacterial cell membrane permeability by monitoring the release of calcein, a fluorescent marker, from calcein entrapped LUVs with different lipid bilayer compositions.
Peptide-induced membrane permeabilization was quantified by monitoring calcein release from LUVs (n=3 per condition). Different calcein-entrapped LUVs [PE/PG (7/3) or PC/CH/SM (1/1/1)] were prepared as described above, except that the dry lipid films were resuspended in 1 mL of PBS (pH 7.2) containing 70 mM calcein. Gel filtration chromatography on a Sephadex G-50 column was performed to separate free calcein from that entrapped in LUVs. Thereafter, the LUVs with entrapped calcein were mixed with peptides at various ratios, and the fluorescence of the released calcein was measured with a SpectraMax M3 Multi-Mode Microplate Reader (Molecular Devices, Sunnyvale, CA, USA) at excitation and emission wavelengths of 480 and 520 nm, respectively.

L. monocytogens KCTC3710 = format: cell-based, Listeria monocytogenes; settings: KCTC3710, 18 h
Description: (§1) In order to evaluate the antimicrobial activity of the peptides prepared by the method of above 1, a minimal inhibitory concentration (MIC) value as the minimum concentration of a peptide, in which cells are not divided, was measured.
(§2) Specifically, the strains shown in Table 3 below were purchased, cultured in a medium having a constitutional composition suitable for each strain to a mid-log phase, and then diluted to a concentration of 2×10^4 cells/100 μl to prepare the product on a micro-titration plate (Nunc, USA). Then, PEP27, PEP27-1, PEP27-2 or PEP27-5 peptide synthesized in the above 1 was added to each well by serial dilution ½ times, followed by incubation at 37° C. for 18 hours.

B. subtilis KCTC1998 = format: cell-based, Bacillus subtilis; settings: KCTC1998, 18 h
Description: as §1, §2

P. aeruginosa ATCC15692 = assay: microbe, parasite or virus in culture; settings: ATCC15692, 18 h
Description: as §1, §2
(§3) Specifically, subject strains were prepared by the method of above 2, and were treated with the antibiotics, that is, meropenem, ceftazidime, ceftriaxone or vancomycin, respectively, followed by determining MICs of the antibiotics.

S. aureus MW2 = assay: microbe, parasite or virus in culture; settings: S. aureus MW2, antibiotics-tolerant; 37° C., 18 hours
Description: as §1, §2, §3

P. aeruginosa 4007 = assay: microbe, parasite or virus in culture; settings: 4007, 18 h
Description: as §1, §2, §3

S. aureus ATCC29213 = assay: microbe, parasite or virus in culture; settings: ATCC29213, 18 h
Description: as §1, §2, §3

P. aeruginosa ATCC27853 = assay: microbe, parasite or virus in culture; settings: ATCC27853, 18 h
Description: as §1, §2, §3

S. aureus ATCC25923 = assay: microbe, parasite or virus in culture; settings: ATCC25923, 18 h
Description: as §1, §2, §3

S. aureus CCARM3518 = assay: microbe, parasite or virus in culture; settings: S. aureus CCARM3518, antibiotics-tolerant; 37° C., 18 hours
Description: as §1, §2, §3

S. aureus CCARM3089 = assay: microbe, parasite or virus in culture; settings: S. aureus CCARM3089, antibiotics-tolerant; 37° C., 18 hours
Description: as §1, §2, §3

P. aeruginosa 4891 = assay: microbe, parasite or virus in culture; settings: 4891, 18 h
Description: as §1, §2, §3

S. aureus CCARM3090 = assay: microbe, parasite or virus in culture; settings: S. aureus CCARM3090, antibiotics-tolerant; 37° C., 18 hours
Description: as §1, §2, §3

S. aureus USA300 = assay: microbe, parasite or virus in culture; settings: S. aureus USA300, antibiotics-tolerant; 37° C., 18 hours
Description: as §1, §2, §3

E. coli CCARM1238 = format: cell-based, Escherichia coli; settings: E. coli CCARM1238, antibiotics-tolerant; 37° C., 18 hours
Description: as §1, §2

E. coli ATCC27325 = format: cell-based, Escherichia coli; settings: ATCC27325, 18 h
Description: as §1, §2

E. coli CCARM1229 = format: cell-based, Escherichia coli; settings: E. coli CCARM1229, antibiotics-tolerant; 37° C., 18 hours
Description: as §1, §2

E. coli ATCC25922 = format: cell-based, Escherichia coli; settings: ATCC25922, 18 h
Description: as §1, §2

[3] = tested on: Sa. typhimurium CCARM8009; format: cell-based, Salmonella typhimurium; settings: Sa. typhimurium CCARM8009, antibiotics-tolerant; 37° C., 18 hours
Description: as §1, §2

Sa. typhimurium KCTC1926 = format: cell-based, Salmonella typhimurium; settings: KCTC1926, 18 h
Description: as §1, §2

[4] = tested on: Sa. typhimurium CCARM8007; format: cell-based, Salmonella typhimurium; settings: Sa. typhimurium CCARM8007, antibiotics-tolerant; 37° C., 18 hours
Description: as §1, §2

[5] = Peptide concentration 100 μM, 100% = 1% Triton X-100

CSCC[C@H](N)C(=O)N[C@@H](CCCNC(=N)N)C(=O)N[C@@H](CCCCN)C(=O)N[C@@H](CCC(=O)O)C(=O)N[C@@H](Cc1ccccc1)C(=O)N[C@@H](Cc1c[nH]cn1)C(=O)N[C@@H](CC(N)=O)C(=O)N[C@H](C(=O)N[C@@H](CC(C)C)C(=O)N[C@@H](CO)C(=O)N[C@@H](CO)C(=O)NCC(=O)N[C@@H](CCC(N)=O)C(=O)N[C@@H](CC(C)C)C(=O)N[C@@H](CC(C)C)C(=O)N[C@@H](C)C(=O)N[C@@H](CC(=O)O)C(=O)N[C@@H](CCCCN)C(=O)N[C@@H](CCCNC(=N)N)C(=O)N1CCC[C@H]1C(=O)N[C@@H](C)C(=O)N[C@@H](CCCNC(=N)N)C(=O)N[C@@H](CC(=O)O)C(=O)N[C@@H](Cc1ccc(O)cc1)C(=O)N[C@@H](CC(N)=O)C(=O)N[C@@H](CCCNC(=N)N)C(=O)N[C@@H](CCCCN)C(N)=O)C(C)C [PEP27] (H-MRKEFHNVLSSGQLLADKRPARDYNRK-NH2; N-terminus assumed)
Erythrocyte destruction ability ([1]; Peptide concentration 3.13 μM): 0% | Erythrocyte destruction ability ([1]; Peptide concentration 6.25 μM): 1.26% | Erythrocyte destruction ability ([1]; Peptide concentration 12.5 μM): 1.79% | Erythrocyte destruction ability ([1]; Peptide concentration 25 μM): 2.76% | Erythrocyte destruction ability ([1]; Peptide concentration 50 μM): 3.64% | Erythrocyte destruction ability [1, 5]: 3.58% | bacterial membrane destruction (E. coli; E. coli, flow cytometry): without destruction of the E. coli membrane | PI-positive E. coli cells (membrane destruction ability) (E. coli; at MIC, 37° C., 1 hour): 19.9% | binding to DNA (gel electrophoresis) (plasmid DNA (pRSETB)): bound to DNA | viability at 24 h, 100 µM (MTT cytotoxicity): 100% | calcein leakage [2]: 12%

CSCC[C@H](N)C(=O)N[C@@H](Cc1c[nH]c2ccccc12)C(=O)N[C@@H](CCCCN)C(=O)N[C@@H](Cc1c[nH]c2ccccc12)C(=O)N[C@@H](Cc1ccccc1)C(=O)N[C@@H](Cc1c[nH]cn1)C(=O)N[C@@H](CC(N)=O)C(=O)N[C@H](C(=O)N[C@@H](CC(C)C)C(=O)N[C@@H](CO)C(=O)N[C@@H](CO)C(=O)NCC(=O)N[C@@H](CCC(N)=O)C(=O)N[C@@H](CC(C)C)C(=O)N[C@@H](CC(C)C)C(=O)N[C@@H](C)C(=O)N[C@@H](CC(=O)O)C(=O)N[C@@H](CCCCN)C(=O)N[C@@H](Cc1c[nH]c2ccccc12)C(=O)N[C@@H](Cc1c[nH]c2ccccc12)C(=O)N[C@@H](C)C(=O)N[C@@H](Cc1c[nH]c2ccccc12)C(=O)N[C@@H](Cc1c[nH]c2ccccc12)C(=O)N[C@@H](Cc1ccc(O)cc1)C(=O)N[C@@H](CC(N)=O)C(=O)N[C@@H](Cc1c[nH]c2ccccc12)C(=O)N[C@@H](Cc1c[nH]c2ccccc12)C(N)=O)C(C)C [PEP27-5] (H-MWKWFHNVLSSGQLLADKWWAWWYNWW-NH2)
Minimal inhibitory concentration (L. monocytogens KCTC3710): >64 µM | Erythrocyte destruction ability ([1]; Peptide concentration 3.13 μM): 0% | Erythrocyte destruction ability ([1]; Peptide concentration 6.25 μM): 0% | Erythrocyte destruction ability ([1]; Peptide concentration 12.5 μM): 0% | Erythrocyte destruction ability ([1]; Peptide concentration 25 μM): 0% | Erythrocyte destruction ability ([1]; Peptide concentration 50 μM): 2.34% | Erythrocyte destruction ability [1, 5]: 3.25% | Minimal inhibitory concentration (B. subtilis KCTC1998): >64 µM | Minimal inhibitory concentration (P. aeruginosa ATCC15692): >64 µM | Minimal inhibitory concentration (S. aureus MW2): >64 µM | Minimal inhibitory concentration (P. aeruginosa 4007): >64 µM | Minimal inhibitory concentration (S. aureus ATCC29213): >64 µM | Minimal inhibitory concentration (P. aeruginosa ATCC27853): >64 µM | Minimal inhibitory concentration (S. aureus ATCC25923): >64 µM | Minimal inhibitory concentration (S. aureus CCARM3518): >64 µM | Minimal inhibitory concentration (S. aureus CCARM3089): >64 µM | Minimal inhibitory concentration (P. aeruginosa 4891): >64 µM | Minimal inhibitory concentration (S. aureus CCARM3090): >64 µM | Minimal inhibitory concentration (S. aureus USA300): >64 µM | Minimal inhibitory concentration (E. coli CCARM1238): >64 µM | Minimal inhibitory concentration (E. coli ATCC27325): >64 µM | Minimal inhibitory concentration (E. coli CCARM1229): >64 µM | Minimal inhibitory concentration (E. coli ATCC25922): >64 µM | viability at 24 h, 100 µM (MTT cytotoxicity): 100% | Minimal inhibitory concentration [3]: >64 µM | Minimal inhibitory concentration (Sa. typhimurium KCTC1926): >64 µM | Minimal inhibitory concentration [4]: >64 µM
